Earlier results on one compound are cited in patent US20020120149A1, “Substituted hydrazine derivatives” (priority 2000, published 2002).

This data set concerns NMDA receptor. The note with it: in vitro at concentrations at which clinical efficacy is seen.

With `O=C(CCCN1CCC(O)(c2ccc(Cl)cc2)CC1)c1ccc(F)cc1` [haloperidol], the “increase in NMDA receptor activity” value is on record as around 40%.
